Data from patent publication US9707267B2, “Beta-turn peptidomimetic cyclic compounds for treating dry eye” (Mimetogen Pharmaceuticals, Inc., priority 2008, dated 2017).

What was measured:
[1] = Maximum solubility in topical dosing solution; type: physicochemical; settings: buffered saline ~pH 7, isotonic; 25.0 mg per mL solution
Experimental: Compound D3 was prepared using a formulation designed by Mimetogen Pharmaceuticals, which is buffered saline ˜pH 7 (as determined by pH indicator strips, EMD Chemicals). Three topical dosing solutions were prepared as follows: • A topical dosing solution of 0.4% was prepared using 4.0 mg of compound dissolved in 845 μL, of sterile milliQ water. The solution was adjusted to ˜pH 7 with 6.5 μL of 1.0 N NaOH (VWR) using pH indicator strips and made isotonic (0.9% NaCl) by adding 148.5 μL of sterile 1.0 M NaCl. • A topical dosing solution of 1.0% was prepared using 10.0 mg of compound dissolved in 845 μL of sterile milliQ water. […] The solution was adjusted to ˜pH 7 with 20 μL of 1.0 N NaOH. The solution was made isotonic by adding 135 μL of sterile 1.0 M NaCl. All solutions were sonicated for 5 min. All compound D3 solutions were stored refrigerated (2-8° C.) for the duration of the study.

naïve rats = test: Tear mucin production in naïve rats following topical instillation, ELLA (Example 4); type: in vivo, rat
Experimental: Dose-ranging studies were conducted on the topical instillations of compound D3 in stimulating mucin production in naïve rats. Thirty male sprague dawley rats were divided into five groups of six rats per group and were treated bilaterally once every hour for six consecutive hours with either saline, 0.4% of compound D3, 1.0% of compound D3, 2.5% of compound D3 and 0.00053% of NGF. Once anesthetized, each animal received a 5 μL topical instillation of test article into the lower conjunctival sac of both eyes using a calibrated micropipette.
Tear fluid washings from both eyes were pooled and were collected prior to treatment and following six hourly instillations of saline, compound D3 and NGF. All tear fluid washings were evaluated for mucin concentration by an enzyme-linked lectin assay (ELLA).
The mean and standard deviation (SD) were used to characterize the data. The differences in mucin concentration was calculated from treated minus baseline from groups of rats. Continuous mucin changes between two groups from baseline were evaluated using the paired t test. The mucin changes between more than two treatment groups were analyzed using an analysis of variance. The median mucin changes between treatment groups were compared against a theoretical median of zero using the […]. A two-sided test with P<0.05 was considered to be statistically significant. Statistical analysis were performed using GraphPad Prism 4.0C (GraphPad Software Inc., La Jolla, Calif.).

[2] = 2.5%, 5 μL bilaterally once every hour for six hours

maximum solubility [1]: 2.5%
SMILES: NCCCC[C@@H]1NC(=O)[C@H](CCC(=O)O)NC(=O)c2cc([N+](=O)[O-])ccc2OCCC(C(=O)NCC(=O)O)NC1=O (some centres unmarked) [Compound D3]
mean changes in mucin concentration (in words) (naïve rats; 0.4%, 1.0%, 2.5%, six hourly instillations): dose-dependent
tear mucin concentration at baseline (naïve rats; 2.5% group, prior to treatment): 3.0 ± 1.9 ng/µL
change in mucin concentration from baseline (naïve rats; [2]): 4.0 ± 3.5 ng/µL
tear mucin concentration after treatment (naïve rats; [2]): 7.0 ± 4.5 ng/µL
